From article PMC4549042, “Targeting procaspase-3 with WF-208, a novel PAC-1 derivative, causes selective cancer cell apoptosis” (Journal of Cellular and Molecular Medicine, 2015)
Read-outs that look alike come from different tables or passages of the source.

How the values were obtained:
HL-60 cells = test: Immunofluorescence of cleaved caspase-3; assay type: cell-based, human; settings: 10 μM, 24 hrs
Experimental: HL-60 cells were treated with the 50 μM of PAC-1 and 10 μM WF-208 for 0.5, 1, 3, 6, 12 and 24 hrs. After such treatment, cells were fixed in 4% paraformaldehyde for 15 min., washed with PBS. Subsequently, cells were blocked with 10% bovine serum albumin (BSA) and Triton X-100 for 1 hr at room temperature and incubated at 4°C overnight with anti-cleaved caspase-3 rabbit mAb (1:100) diluted in 1% BSA. After three times of washing with PBS, cells were incubated with secondary antibody (FITC-conjugated goat anti-rabbit IgG, 1:200) for 1 hr at room temperature. Hoechst 33342 was used as a double staining for the nucleus. After washing with PBS, digital images of the cells captured under with ImageXpress 5000 (Molecular Devices, Sunnyvale, CA, USA). The images were quantified and analysed by using MetaXpress software (Molecular Devices). Cleaved caspase-3 level was expressed as the percentage of positively FITC-stained cells.

HL-60 cell line [1] = test: MTT cell viability assay, HL-60; assay type: cell-based; settings: Homo sapiens, 72 hrs
Experimental: (§1) The cell viability effects of the tested compounds were determined by MTT assay. Cells (1 × 10^4 cells/100 μl/well) were seeded into 96-well culture plates. After overnight incubation, cells were treated with various concentrations of compounds for 72 hrs. Subsequently, 10 μl MTT solution (2.5 mg/ml in PBS) was added to each well, than the cells were incubated for an additional 3–4 hrs at 37°C. After centrifugation (200 × g, 10 min.), the medium with MTT was aspirated, followed by the addition of 100 μl DMSO. The optical density of each well was measured at 570 nm with a Biotek Synergy TM HT Reader.

HL-60 cell line [2] = test: MTT cell viability assay, HL-60; assay type: cell-based, human; settings: HL-60, 10 μM ZnSO4, 24 hrs
[3] = tested on: MCF-7 cells transfected with procaspase-3; test: Cytotoxicity in MCF-7 cells transfected with procaspase-3; assay type: cell-based, human; settings: different concentrations, vs empty vector
Experimental: as §1
HL-60 cells were transfected with procaspase-3 siRNA (Invitrogen, New York, USA, 100 nmol/l final concentration, Sense siRNA Sequence: GUCUAACUGGAAAACCCAAtt Antisense siRNA Sequence: UUGGGUUUUCCAGUUAGACtt) by Lipofectamine 2000 (Invitrogen) according to the manufacturer’s instructions. Scrambled siRNA (Invitrogen) was control. The cDNA of human procaspase-3 was cloned into pIRES2-EGFP expression vector, and procaspase-3 and EGFP genes were separately expressed. The pIRES2-EGFP and pIRES2-EGFP-procaspase-3 were transiently transfected into MCF-7 cells. Expression of procaspase-3 was verified by western blotting.

[4] = tested on: mouse primary cortical cell; test: Cytotoxicity in mouse primary cortical neuron cells; assay type: cell-based; settings: neurotoxicity
Experimental: as §1

[5] = tested on: HL-60 and U-937 cell lines; test: Western blot of Bcl-2 family and IAP proteins in HL-60 and U-937; assay type: cell-based, human; settings: various concentrations, 24 hrs
Experimental: Approximately 1 × 10^7 HL-60 cells were gathered after pre-treatment with PAC-1 and WF-208 as previously described. The tumour tissue protein was purified according to the reported methods. Western blotting was performed as previously described. All antibodies were purchased from Cell Signaling Technology. In brief, an equal amount of total protein extracts from cultured cells or tissues were fractionated by 10–15% SDS-PAGE and electrically transferred onto polyvinylidene difluoride (PVDF) membranes. Different primary antibodies and corresponding horseradish peroxidase-conjugated secondary antibodies were used to detect the proteins. The bound secondary antibodies on the PVDF membrane were reacted with ECL™ Western Blotting Reagents detection reagents (Thermo Fisher, Rockford, USA) and exposed to X-ray films. Results were normalized to the internal control β-actin.

rh-procaspase-3 = target: T1, rh-procaspase-3 (Homo sapiens, UniProt P42574); test: Caspase-3 activation assay (procaspase-3 activation in vitro); assay type: biochemical; settings: rh-procaspase-3, concentrations 0.08–100 μM
T1 construct: purchased R&D System (Minneapolis, USA)
T1 sequence (P42574 1-277): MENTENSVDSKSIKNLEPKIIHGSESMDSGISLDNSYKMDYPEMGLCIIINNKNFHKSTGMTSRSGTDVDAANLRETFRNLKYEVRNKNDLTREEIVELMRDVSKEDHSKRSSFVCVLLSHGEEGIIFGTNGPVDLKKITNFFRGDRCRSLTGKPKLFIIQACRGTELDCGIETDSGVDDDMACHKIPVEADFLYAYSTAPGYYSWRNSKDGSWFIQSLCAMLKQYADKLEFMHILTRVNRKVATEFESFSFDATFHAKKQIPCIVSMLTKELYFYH
Experimental: Procaspase-3 protein was purchased from R&D System (Minneapolis, USA). Procaspase-3 protein was added into 384-well plates. Tested compounds (or DMSO as control) were then added to achieve a final concentration of procaspase-3 of 50 ng/ml. Each plate was incubated for 2 hrs at 37°C. Then caspase-3 peptide substrate (acetyl Asp-Glu-Val-Asp-[…] (Ac-DEVD-pNa), 200 μM) were added. The absorbance of each well was measured at 405 nm in kinetic mode for 10 min [13].

human normal cells = test: MTT cytotoxicity in human normal cells; assay type: cell-based
Text: Human malignant cell lines, A549, Colo-205, DU145, NCI-H226, Hep-3B, Hep-G2, K562, MCF-7, U-87, GBC-SD, MDA-MB-435S, PC-3, U-937, HL60, SH-SY5Y and human normal cell lines, MCF-10A and L-02, HUVEC were obtained from the American Type Culture Collection (Manassas, VA, USA) and National Center for Medical Culture Collection (Shanghai, China). They were routinely cultured in RPMI 1640, DMEM or DMEM/F12 (Gibco, New York, USA) supplemented with 10% foetal bovine serum (Gibco, New York, USA) and maintained at 37°C in a humidified incubator with 5% CO2.
(§2) Human peripheral blood lymphocytes were obtained as described previously. In brief, after diluting blood with PBS, lymphocytes were isolated by centrifugation over a density gradient of lymphocytes extracting solution for 15 min. at 280 × g. The cells were harvested, washed with PBS twice, and suspended in complete RPMI 1640 (Gibco, New York, USA) with 10% foetal bovine serum (Gibco, New York, USA).
The cell viability effects of the tested compounds were determined by MTT assay. Cells (1 × 10^4 cells/100 μl/well) were seeded into 96-well culture plates. After overnight incubation, cells were treated with various concentrations of compounds for 72 hrs. […] The optical density of each well was measured at 570 nm with a Biotek Synergy TM HT Reader.

PBL = test: MTT cytotoxicity in human peripheral blood lymphocytes; assay type: cell-based; settings: 72 hrs
Experimental: as §2, §1

## O=C(CN1CCN(Cc2nc(-c3ccc(COc4ccc(Cl)cc4)cc3)no2)CC1)N/N=C/c1ccc(OCc2csc(Cc3ccc4c(c3)OCO4)n2)cc1O [C2]
HL-60 cells
  cells with procaspase-3 cleaved: more than 60%
HL-60 cell line [1]
  IC50: 0.08 µM
HL-60 cell line [2]
  cytotoxicity on co-treatment with ZnSO4: significantly relieved
[3]
  cytotoxic effect in MCF-7 cells transfected with procaspase-3: more sensitive
[4]
  IC50: 96.2 µM
[5]
  expression of Bcl-2 family members Bcl-2, Bcl-xl, Bax and BID: not changed
  expression of XIAP and survivin: significantly down-regulated
rh-procaspase-3
  EC50: 0.56 µM
Human normal cells; Figure 3 panel D, read-out: Mean (IC50) of human normal cells
  IC50: 348 µM
Human normal cells; text b44, read-out: mean IC50 value on three different normal cells
  IC50: 216 µM
PBL
  IC50: 743 µM
